The assay relates to ATF4 luciferase reporter (human full-length ATF4 5'-UTR fused to firefly luciferase) in HEK293T cells. Kind of assay: ATF4-Luc assay (in vitro model of VWMD): HEK293T cells carrying ATF4 luciferase reporter, tunicamycin-treated. The class given is cell-based. The conditions noted are these: Homo sapiens, HEK-293T, 1 μg/mL tunicamycin, 7 hours, One Glo luminescence. The gist of the method: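 Compound at 200 nM and tunicamycin at 1 μg/mL were given together for 7 h to HEK293T cells stably transduced with an ATF4 5′-UTR-driven firefly luciferase reporter. Read-out by luminescence, reported as EC50.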
`O=C(COc1ccc(Cl)c(F)c1)NC12CC(NC(=O)C3C/C(=N\O)c4cc(F)ccc4O3)(C1)C2` (stereo not drawn) [Compound 298, N-{3-[2-(4-chloro-3-fluorophenoxy)acetamido]bicyclo[1.1.1]pentan-1-yl}-6-fluoro-4-(hydroxyimino)-3,4-dihydro-2H-1-benzopyran-2-carboxamide]: the EC50 lay within 10 to 50 nM.

As to `O=C(O)CNC1CC(C(=O)NC23CC(NC(=O)COc4ccc(Cl)c(F)c4)(C2)C3)Oc2ccc(Cl)cc21` (stereo not drawn) [Compound 192, {[6-chloro-2-({3-[2-(4-chloro-3-fluorophenoxy)acetamido]bicyclo[1.1.1]pentan-1-yl}carbamoyl)-3,4-dihydro-2H-1-benzopyran-4-yl]amino}acetic acid], the EC50 is 500 to 2000 nM.

For the compound `C[C@]1(O)C[C@H](C(=O)NC23CC(NC(=O)COc4ccc(Cl)c(F)c4)(C2)C3)Oc2ccc(Cl)cc21` (single isomer, unassigned) [Compound 281], the EC50 was less than 10 nM.

As for `O=C(NC12CCC(NC(=O)[C@@H]3CC(=O)c4cc(Cl)ccc4O3)(CC1)CC2)c1ccc(OC(F)(F)F)cn1` [Compound 358, N-(4-{[(2S)-6-chloro-4-oxo-3,4-dihydro-2H-1-benzopyran-2-carbonyl]amino}bicyclo[2.2.2]octan-1-yl)-5-(trifluoromethoxy)pyridine-2-carboxamide], the EC50 is more than 2000 nM.

With `O=C(COc1ccc(Cl)c(F)c1)NC12CC(NC(=O)C3CC(NC4(C(=O)O)CC4)c4cc(Cl)ccc4O3)(C1)C2` (stereo not drawn) [Compound 210, 1-{[6-chloro-2-({3-[2-(4-chloro-3-fluorophenoxy)acetamido]bicyclo[1.1.1]pentan-1-yl}carbamoyl)-3,4-dihydro-2H-1-benzopyran-4-yl]amino}cyclopropane-1-carboxylic acid], the EC50 fell in the range of 250 to 500 nM.

Turning to `O=C(COc1ccc(Cl)c(F)c1)NC12CC(NC(=O)[C@@H]3C[C@H](O)c4cc(Cl)c(F)cc4O3)(C1)C2` (single isomer, unassigned) [Compound 265], the EC50 is less than 10 nM.

Turning to `C[C@]1(C(=O)NC23CC(NC(=O)COc4ccc(Cl)c(F)c4)(C2)C3)C[C@@H](O)c2cc(Cl)ccc2O1` (racemic) [Compound 251, rac-(2R,4R)-6-chloro-N-{3-[2-(4-chloro-3-fluorophenoxy)acetamido]bicyclo[1.1.1]pentan-1-yl}-4-hydroxy-2-methyl-3,4-dihydro-2H-1-benzopyran-2-carboxamide], the EC50 was in the range of 10 to 50 nM.

As for `O=C(NC12CCC(NC(=O)[C@H]3C[C@@H](O)c4cc(Cl)ccc4O3)(CC1)C[C@@H]2O)c1cnc(C(F)F)cn1` [Compound 353, N-[(2S)-4-{[(2R,4R)-6-chloro-4-hydroxy-3,4-dihydro-2H-1-benzopyran-2-carbonyl]amino}-2-hydroxybicyclo[2.2.2]octan-1-yl]-5-(difluoromethyl)pyrazine-2-carboxamide], the EC50 was in the range of 50 to 250 nM.

Regarding `O=C(COc1ccc(Cl)c(F)c1)NC12CC(NC(=O)[C@@H]3C=Cc4cc(Cl)ccc4O3)(C1)C2` [Compound 279, (2S)-6-chloro-N-{3-[2-(4-chloro-3-fluorophenoxy)acetamido]bicyclo[1.1.1]pentan-1-yl}-2H-1-benzopyran-2-carboxamide], the EC50 is less than 10 nM.

Regarding `Cc1cc2c(cc1F)C(O)CC(C(=O)NC13CC(NC(=O)COc4ccc(Cl)c(F)c4)(C1)C3)O2` (stereo not drawn) [Compound 347, N-{3-[2-(4-chloro-3-fluorophenoxy)acetamido]bicyclo[1.1.1]pentan-1-yl}-6-fluoro-4-hydroxy-7-methyl-3,4-dihydro-2H-1-benzopyran-2-carboxamide], the EC50 was less than 10 nM.

For the compound `O=C(COc1ccc(C(F)(F)F)nc1)NC12CC(NC(=O)[C@@H]3CC(=O)c4cc(Cl)ccc4O3)(C1)C2` [Compound 335, (2S)-6-chloro-4-oxo-N-[3-(2-{[6-(trifluoromethyl)pyridin-3-yl]oxy}acetamido)bicyclo[1.1.1]pentan-1-yl]-3,4-dihydro-2H-1-benzopyran-2-carboxamide], the EC50 is 50 to 250 nM.

Take `O=C(NC12CCC(NC(=O)[C@@H]3C[C@H](O)c4cc(Cl)ccc4O3)(CC1)[C@@H](O)C2)c1cc(C(F)F)no1` (single isomer, unassigned) [Compound 216]: the concentration for a half-maximal effect (EC50) lay in the range of 250 to 500 nM.

Regarding `CO[C@@H]1C[C@H](C(=O)NC23CC(NC(=O)COc4ccc(Cl)c(F)c4)(C2)C3)Oc2ccc(Cl)cc21` (racemic) [Compound 340, rac-(2R,4R)-6-chloro-N-{3-[2-(4-chloro-3-fluorophenoxy)acetamido]bicyclo[1.1.1]pentan-1-yl}-4-methoxy-3,4-dihydro-2H-1-benzopyran-2-carboxamide], the EC50 was less than 10 nM.

With `O=C(COc1cc(F)c2cn[nH]c2c1)NC12CCC(NC(=O)[C@H]3C[C@@H](O)c4cc(Cl)ccc4O3)(CC1)[C@@H](O)C2` [Compound 355, (2R,4R)-6-chloro-N-[(2S)-4-{2-[(4-fluoro-1H-indazol-6-yl)oxy]acetamido}-2-hydroxybicyclo[2.2.2]octan-1-yl]-4-hydroxy-3,4-dihydro-2H-1-benzopyran-2-carboxamide], the EC50 is less than 10 nM.

On to `O=C(COc1ccc(Cl)c(F)c1)NC12CCC(NC(=O)[C@@H]3C[C@H](O)c4cc(Cl)ccc4O3)(CC1)[C@@H](O)C2` (single isomer, unassigned) [Compound 239], for which the EC50 was less than 10 nM.

On to `O=C(COc1ccc(Cl)c(F)c1)NC12CC(NC(=O)[C@@H]3C[C@H](NCCO)c4cc(Cl)ccc4O3)(C1)C2` [Compound 309, (2S,4S)-6-chloro-N-{3-[2-(4-chloro-3-fluorophenoxy)acetamido]bicyclo[1.1.1]pentan-1-yl}-4-[(2-hydroxyethyl)amino]-3,4-dihydro-2H-1-benzopyran-2-carboxamide], for which the EC50 was less than 10 nM.

As for `O=C(COc1ccc(Cl)cn1)NC12CC(NC(=O)[C@H]3C[C@@H](O)c4cc(Cl)ccc4O3)(C1)C2` [Compound 233, (2R,4R)-6-chloro-N-(3-{2-[(5-chloropyridin-2-yl)oxy]acetamido}bicyclo[1.1.1]pentan-1-yl)-4-hydroxy-3,4-dihydro-2H-1-benzopyran-2-carboxamide], the half-maximal effective concentration (EC50) was in the range of 10 to 50 nM.

`C[C@@]1(O)C[C@H](C(=O)NC23CC(NC(=O)COc4ccc(Cl)c(F)c4)(C2)C3)Oc2ccc(Cl)cc21` (single isomer, unassigned) [Compound 280]: the EC50 was 10 to 50 nM.

On to `O=C(COc1ccc(Cl)c(F)c1)NC12CC(NC(=O)[C@H]3CC(=O)c4ccccc4O3)(C1)C2` [Compound 268, (2R)—N-{3-[2-(4-chloro-3-fluorophenoxy)acetamido]bicyclo[1.1.1]pentan-1-yl}-4-oxo-3,4-dihydro-2H-1-benzopyran-2-carboxamide], for which the EC50 was 10 to 50 nM.

As for `O=C(COc1ccc(Cl)c(F)c1)NC12CC(NC(=O)[C@H]3C[C@H](O)c4cc(Cl)ccc4O3)(C1)C2` [Compound 197, (2R,4S)-6-chloro-N-{3-[2-(4-chloro-3-fluorophenoxy)acetamido]bicyclo[1.1.1]pentan-1-yl}-4-hydroxy-3,4-dihydro-2H-1-benzopyran-2-carboxamide], the EC50 was less than 10 nM.

For `O=C(COc1ccc(Cl)c(F)c1)NC12CC(NC(=O)c3cc(=O)c4ccc(F)cc4o3)(C1)C2` [Compound 313, N-{3-[2-(4-chloro-3-fluorophenoxy)acetamido]bicyclo[1.1.1]pentan-1-yl}-7-fluoro-4-oxo-4H-1-benzopyran-2-carboxamide], the EC50 is 10 to 50 nM.

Usually EC50 stands for the midpoint of the concentration-response curve.

These data come from patent US20240018133A1, “MODULATORS OF THE INTEGRATED STRESS PATHWAY” (Calico Life Sciences LLC, priority 2019, published 2024).
